Paper PMC12738788, “Structural snapshots of Pseudomonas aeruginosa LptB2FG and LptB2FGC reveal insights into lipopolysaccharide recognition and transport” (Nature Communications, 2025)
“And” between values parts separate entries of the source, which are not always exact repeats. Identical values can stand only once.

Key:
P. aeruginosa LptB2FGC [1] = assay: Native MS: CDL added to LptB2FG(C):Re-LPS complex (competition); assay type: binding, Pseudomonas aeruginosa; details: Re-LPS 1 uM + CDL 2.5 uM
Experimental: In particular, we chose 14:0 CDL to be consistent with the 14 carbon lipid tails of Re-LPS, and incubated this with the LptB2FG/LptB2FGC complex, we could observe ~ 50% of LptB2FGC bound to CDL at 2.5 μM concentration (Fig. 5b). Apparent KD calculation indicated a similar trend when comparing LptB2FG and LptB2FGC interaction with CDL to that of LPS (Supplementary Fig. S18). […] We set out to test whether CDL influences LPS binding to LptB2FGC. To this end, we added increasing concentrations of CDL (1.0 to 5 μM) to a solution containing LptB2FG(C):Re-LPS complex (Supplementary Fig. S19).
Purified LptB2FG(C) was buffer exchanged into MS Buffer (200 mM ammonium acetate + 0.04% (w/v) [G1]-OGD) using a centrifugal buffer exchange device (Micro Bio-Spin 6, Bio-Rad) as previously described. The freshly buffer-exchanged protein was kept on ice, with protein concentration measured as before. […] Data were analysed using the Xcalibur 3.0 (Thermo Scientific), NaViA[64], and UniDec (www.unidec.chem.ox.ac.uk)[65] software packages. […]
Peak intensities were extracted using UniDec, and the ratios of the intensity of the ligand bound peak versus the total intensity of all observed species were calculated. The apparent dissociation constant (KD) values for individual lipid-binding events to LptB2FG and LptB2FGC were calculated through a sequential lipid-binding model using a previously described Python script. […]

P. aeruginosa LptB2FGC [2] = assay: Native MS lipid binding to LptB2FGC; parameters: species or system Pseudomonas aeruginosa; details: for 1x lipid_Ratio / 2x lipid_Ratio / 3x lipid_Ratio / 4x lipid_Ratio / Apo_Ratio: 3 μM protein
Experimental: (§1) Purified LptB2FG(C) was buffer exchanged into MS Buffer (200 mM ammonium acetate + 0.04% (w/v) [G1]-OGD) using a centrifugal buffer exchange device (Micro Bio-Spin 6, Bio-Rad) as previously described. The freshly buffer-exchanged protein was kept on ice, with protein concentration measured as before. The protein samples were diluted as desired in 200 mM ammonium acetate buffer with detergent as necessary and loaded into a gold-coated capillary Clark borosilicate capillary (Harvard Apparatus) prepared in the laboratory. The experiments were performed using a Q Exactive UHMR Hybrid Quadrupole-Orbitrap mass spectrometer (Thermo Fisher Scientific). Typically, 2 μl of buffer-exchanged protein solution was electrosprayed in negative polarity from in-house prepared gold-coated borosilicate capillaries. The instrument parameters used for data collection were: capillary voltage 1.1 kV, S-lens RF 100%, quadrupole selection from 1000 to 20,000 m/z range, HCD collision energy 200–300 V, source fragmentation 0 V, in-source trapping 200–300 V in negative mode. The ion transfer optics was set as follows: injection flatapole − 5 V, inter-flatapole lens − 4 V, bent flatapole − 2 V, transfer multipole 0 V. The resolution of the instrument was 8750 at m/z = 200 (transient time of 64 ms), argon pressure in the HCD cell was maintained at approximately at 8 × 10^–10 mbar and source temperature was kept at 200 °C. The noise level was set at 3 rather than the default value of 4.64. Calibration of the instruments was performed using 10 mg/ml solution of caesium iodide in water. Where required, baseline subtraction was performed to achieve a better-quality mass spectrum. Data were analysed using the Xcalibur 3.0 (Thermo Scientific), NaViA[64], and UniDec (www.unidec.chem.ox.ac.uk)[65] software packages.
(§2) Lipid and nucleotide binding experiments were performed by diluting them in 200 mM ammonium acetate supplemented with 0.04% [G1]-OGD. Native MS experiments were performed at a total LptB2FG(C) protein concentration of 3 μM.
(§3) Peak intensities were extracted using UniDec, and the ratios of the intensity of the ligand bound peak versus the total intensity of all observed species were calculated. The apparent dissociation constant (KD) values for individual lipid-binding events to LptB2FG and LptB2FGC were calculated through a sequential lipid-binding model using a previously described Python script. When necessary, a Welch’s T-test was used to evaluate statistically significant differences and data were plotted using GraphPad Prism 8.0. Error bars in the plots indicate standard deviation, and all experiments were performed in triplicate (n = 3).

P. aeruginosa LptB2FG = assay: Native MS lipid binding to LptB2FG; parameters: species or system Pseudomonas aeruginosa; details: for 1x lipid_Ratio / 2x lipid_Ratio / 3x lipid_Ratio / 4x lipid_Ratio / Apo_Ratio: 3 μM protein
Experimental: as §1, §2, §3

[3] = molecular target: P. aeruginosa LptB with a C-terminal 6 x His-tag (P. aeruginosa); assay: native MS; complex co-expressed and purified by the His tag on LptB (IMAC, SEC), exchanged into 200 mM ammonium acetate + 0.04% (w/v) [G1]-OGD; negative polarity
[4] = molecular target: P. aeruginosa LptB with a C-terminal 6 x His-tag (P. aeruginosa); assay: non-reducing SDS-PAGE; SDS-PAGE gel of the purified complex, run under non-reducing conditions
[5] = molecular target: P. aeruginosa LptB with a C-terminal 6 x His-tag (P. aeruginosa); assay: cryo-EM structure; LptB2FG/LptB2FGC co-expressed, co-purified and delipidated, reconstituted in MSP1D1 nanodiscs with E. coli total extract lipid; 20 mM Tris-HCl pH 7.5, 100 mM NaCl; substrate-free; three LptB2FG and two LptB2FGC conformations from one sample
[6] = first lipid-binding event, sequential lipid-binding model, native MS, read-out: apparent dissociation constant KD(1)

## CCCCCCCCCCCCCC(=O)OC[C@H](COP(=O)(O)OCC(O)COP(=O)(O)OC[C@@H](COC(=O)CCCCCCCCCCCCC)OC(=O)CCCCCCCCCCCCC)OC(=O)CCCCCCCCCCCCC (stereo partly shown) [CDL, 1’,3’-bis[1,2-dimyristoyl-sn-glycero-3-phospho]-glycerol]
P. aeruginosa LptB2FGC [1]
  1x CDL: 0.1327 and 0.2003 and 0.1609
  2x CDL: 0
P. aeruginosa LptB2FGC [2]; 0.25 μM lipid
  1x lipid_Ratio: 0.1955 and 0.2067 and 0.2427
  2x lipid_Ratio: 0
  3x lipid_Ratio: 0
  4x lipid_Ratio: 0
  Apo_Ratio: 0.8045 and 0.7933 and 0.7573
P. aeruginosa LptB2FGC [2]; 0.5 μM lipid
  1x lipid_Ratio: 0.236 and 0.2635 and 0.2763
  2x lipid_Ratio: 0
  3x lipid_Ratio: 0
  4x lipid_Ratio: 0
  Apo_Ratio: 0.764 and 0.7365 and 0.7237
P. aeruginosa LptB2FGC [2]; 1 μM lipid
  1x lipid_Ratio: 0.2764 and 0.2872 and 0.3074
  2x lipid_Ratio: 0.0846 and 0.07455 and 0.1186
  3x lipid_Ratio: 0
  4x lipid_Ratio: 0
  Apo_Ratio: 0.639 and 0.6382 and 0.574
P. aeruginosa LptB2FGC [2]; 1.25 μM lipid
  1x lipid_Ratio: 0.3498 and 0.3261 and 0.3766
  3x lipid_Ratio: 0
  4x lipid_Ratio: 0
  Apo_Ratio: 0.545 and 0.5422 and 0.5586
P. aeruginosa LptB2FGC [2]; 2.5 μM lipid
  1x lipid_Ratio: 0.3774 and 0.3613 and 0.3792
  2x lipid_Ratio: 0.1928 and 0.1837 and 0.1898
  3x lipid_Ratio: 0.07276 and 0.06329 and 0.08767
  4x lipid_Ratio: 0
  Apo_Ratio: 0.3571 and 0.3916 and 0.3434
P. aeruginosa LptB2FGC [2]; 5 μM lipid
  1x lipid_Ratio: 0.2708 and 0.2286 and 0.261
  2x lipid_Ratio: 0.3089 and 0.3049 and 0.3123
  3x lipid_Ratio: 0.1993 and 0.2344 and 0.2124
  4x lipid_Ratio: 0.08447 and 0.1259 and 0.09283
  Apo_Ratio: 0.1365 and 0.1062 and 0.1214
P. aeruginosa LptB2FGC [2]; [6]
  Kd: 3.07 ± 0.09 µM
P. aeruginosa LptB2FG; 0.25 μM lipid
  1x lipid_Ratio: 0.1443 and 0.1705 and 0.1602
  2x lipid_Ratio: 0
  3x lipid_Ratio: 0
  4x lipid_Ratio: 0
  Apo_Ratio: 0.8557 and 0.8295 and 0.8398
P. aeruginosa LptB2FG; 0.5 μM lipid
  1x lipid_Ratio: 0.199 and 0.1911 and 0.2318
  2x lipid_Ratio: 0
  3x lipid_Ratio: 0
  4x lipid_Ratio: 0
  Apo_Ratio: 0.801 and 0.8089 and 0.7682
P. aeruginosa LptB2FG; 1 μM lipid
  1x lipid_Ratio: 0.2261 and 0.2185 and 0.1754
  3x lipid_Ratio: 0
  4x lipid_Ratio: 0
  Apo_Ratio: 0.7468 and 0.7118 and 0.7769
P. aeruginosa LptB2FG; 1.25 μM lipid
  1x lipid_Ratio: 0.2786 and 0.2616 and 0.2584
  2x lipid_Ratio: 0.04833 and 0.04258 and 0.08199
  3x lipid_Ratio: 0
  4x lipid_Ratio: 0
  Apo_Ratio: 0.6731 and 0.6958 and 0.6596
P. aeruginosa LptB2FG; 2.5 μM lipid
  1x lipid_Ratio: 0.3458 and 0.3529 and 0.3561
  2x lipid_Ratio: 0.07878 and 0.07812 and 0.08017
  3x lipid_Ratio: 0
  4x lipid_Ratio: 0
  Apo_Ratio: 0.5754 and 0.569 and 0.5638
P. aeruginosa LptB2FG; 5 μM lipid
  1x lipid_Ratio: 0.4041 and 0.3985 and 0.4061
  2x lipid_Ratio: 0.2783 and 0.2976 and 0.263
  3x lipid_Ratio: 0.07217 and 0.104 and 0.096
  4x lipid_Ratio: 0
  Apo_Ratio: 0.2455 and 0.1999 and 0.2349
P. aeruginosa LptB2FG; [6]
  Kd: 4.8 ± 0.14 µM

## CCCCCCCCCCC[C@@H](O)CC(=O)N[C@H]1[C@H](OC[C@H]2O[C@H](OP(=O)(O)O)[C@H](NC(=O)C[C@H](O)CCCCCCCCCCC)[C@@H](OC(=O)C[C@H](O)CCCCCCCCCCC)[C@@H]2O)O[C@H](CO)[C@@H](OP(=O)(O)O)[C@@H]1OC(=O)C[C@H](O)CCCCCCCCCCC [lipid IVA]
P. aeruginosa LptB2FGC [2]; pre-delipidation, ClearColi-expressed complex, with 2× adducts
  lipid IVA occupancy of LptB2FGC: ~ 80%
P. aeruginosa LptB2FG; pre-delipidation, ClearColi-expressed complex, lipid IVA sole LPS-related species
  apo fraction of LptB2FG: ~ 60%

## P. aeruginosa LptB with a C-terminal 6 x His-tag (natural protein)
[3]
  stoichiometry N: 2
[4]
  stoichiometry N: 2
[5]
  stoichiometry N: 2
